Laboratory results published in patent US11649255B2, “Indazoles as hematopoietic progenitor kinase 1 (HPK1) inhibitors and methods using same” (1st Biotherapeutics, Inc., priority 2020, dated 2023).

Target: recombinant human HPK1 (Homo sapiens (Human), UniProt Q92918)
Experiment: HPK1 kinase assay (ADP-Glo)
Type: biochemical
Details: 25 μM ATP, MBP substrate
How it was run: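 Activity was read as ADP formed, detected by ADP-Glo luminescence after the reaction of 5 ng recombinant human HPK1 with MBP and ATP (stocks 0.5 μg/μl and 25 μM) for 40 min at 30 °C. Buffer was Tris pH 7.5 with MgCl2, BSA and DTT, with compound in 0.5% DMSO. IC50 came from inhibition curves.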

Chain of recombinant human HPK1 (Q92918 whole entry): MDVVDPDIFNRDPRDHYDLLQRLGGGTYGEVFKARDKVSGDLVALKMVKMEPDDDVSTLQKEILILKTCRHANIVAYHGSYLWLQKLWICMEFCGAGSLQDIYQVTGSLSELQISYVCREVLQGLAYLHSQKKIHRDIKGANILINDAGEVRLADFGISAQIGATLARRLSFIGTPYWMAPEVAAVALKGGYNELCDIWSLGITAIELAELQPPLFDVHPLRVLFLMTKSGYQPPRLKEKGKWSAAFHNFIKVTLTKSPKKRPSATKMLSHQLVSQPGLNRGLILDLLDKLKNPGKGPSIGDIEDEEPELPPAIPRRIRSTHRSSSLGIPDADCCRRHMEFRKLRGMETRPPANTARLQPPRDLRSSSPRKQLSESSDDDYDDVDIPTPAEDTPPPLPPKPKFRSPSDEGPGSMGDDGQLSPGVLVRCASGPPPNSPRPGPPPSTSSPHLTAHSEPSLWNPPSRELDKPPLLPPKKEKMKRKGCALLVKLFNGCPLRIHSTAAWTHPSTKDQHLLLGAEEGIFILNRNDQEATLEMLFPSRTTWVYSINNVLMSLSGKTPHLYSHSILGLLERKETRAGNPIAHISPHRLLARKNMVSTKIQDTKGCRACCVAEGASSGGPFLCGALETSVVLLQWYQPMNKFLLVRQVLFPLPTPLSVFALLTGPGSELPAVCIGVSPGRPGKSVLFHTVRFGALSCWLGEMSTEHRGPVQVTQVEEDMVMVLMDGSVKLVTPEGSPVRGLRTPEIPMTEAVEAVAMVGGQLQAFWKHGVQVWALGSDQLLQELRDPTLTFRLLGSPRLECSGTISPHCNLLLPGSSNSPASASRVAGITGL

IC50 [nM] | SMILES
< 100 | N#Cc1c(F)c(Cl)c(-c2ccn3nc(NC(=O)[C@@H]4C[C@@H]4F)cc3c2)c2cn[nH]c12 [Example 586, (1S,2S)-N-(5-(5-chloro-7-cyano-6-fluoro-1H-indazol-4-yl)pyrazolo[1,5-a]pyridin-2-yl)-2-fluorocyclopropane-1-carboxamide]
< 100 | Cc1cccn1-c1c(F)c(Cl)c(-c2ccc3nc(NC(=O)[C@@H]4C[C@@H]4F)cn3c2)c2cn[nH]c12 [Example 388, (1S,2S)-N-(6-(5-chloro-6-fluoro-7-(2-methyl-1H-pyrrol-1-yl)-1H-indazol-4-yl)imidazo[1,2-a]pyridin-2-yl)-2-fluorocyclopropane-1-carboxamide]
< 100 | CSc1c(F)c(Cl)c(-c2ccc3nc(NC(=O)[C@@H]4C[C@@H]4F)cn3c2)c2cn[nH]c12 [Example 266, (1S,2S)-N-(6-(5-chloro-6-fluoro-7-(methylthio)-1H-indazol-4-yl)imidazo[1,2-a]pyridin-2-yl)-2-fluorocyclopropane-1-carboxamide]
< 100 | O=C(Nc1cc2cc(-c3c(Cl)c(F)c(NCC4CC4)c4[nH]ncc34)ccn2n1)[C@@H]1C[C@@H]1F [Example 654, (1S,2S)-N-(5-(5-chloro-7-((cyclopropylmethyl)amino)-6-fluoro-1H-indazol-4-yl)pyrazolo[1,5-a]pyridin-2-yl)-2-fluorocyclopropane-1-carboxamide]
< 100 | CO[C@H](C)[C@@H](OC)c1c(F)c(Cl)c(-c2ccc3nc(NC(=O)[C@@H]4C[C@@H]4F)cn3c2)c2cn[nH]c12 [Example 440, (1S,2S)-N-(6-(5-chloro-7-((1S,2R)-1,2-dimethoxypropyl)-6-fluoro-1H-indazol-4-yl)imidazo[1,2-a]pyridin-2-yl)-2-fluorocyclopropane-1-carboxamide]
< 100 | CC(C)c1c(F)cc2[nH]ncc2c1-c1ccn2nc(NC(=O)[C@@H]3C[C@@H]3F)cc2c1 [Example 462, (1S,2S)-2-fluoro-N-(5-(6-fluoro-5-isopropyl-1H-indazol-4-yl)pyrazolo[1,5-a]pyridin-2-yl)cyclopropane-1-carboxamide]
< 100 | CCN(C)C(=O)c1c(F)c(Cl)c(-c2ccc3nc(NC(=O)[C@@H]4C[C@@H]4F)cn3c2)c2cn[nH]c12 [Example 341, 5-chloro-N-ethyl-6-fluoro-4-(2-((1S,2S)-2-fluorocyclopropane-1-carboxamido)imidazo[1,2-a]pyridin-6-yl)-N-methyl-1H-indazole-7-carboxamide]
< 100 | O=C(Nc1cc2cc(-c3c(Cl)c(F)c(NC4CCC(O)CC4)c4[nH]ncc34)ccn2n1)[C@@H]1C[C@@H]1F (stereo partly drawn) [Example 517, (1S,2S)-N-(5-(5-chloro-6-fluoro-7-((4-hydroxycyclohexyl)amino)-1H-indazol-4-yl)pyrazolo[1,5-a]pyridin-2-yl)-2-fluorocyclopropane-1-carboxamide]
< 100 | CNC(=O)NCCOc1c(F)c(C)c(-c2ccn3nc(NC(=O)[C@@H]4C[C@@H]4F)cc3c2)c2cn[nH]c12 [Example 545, (1S,2S)-2-fluoro-N-(5-(6-fluoro-5-methyl-7-(2-(3-methylureido)ethoxy)-1H-indazol-4-yl)pyrazolo[1,5-a]pyridin-2-yl)cyclopropane-1-carboxamide]
> 1000 | O=C(Nc1nc2ccc(-c3c(O)ccc4[nH]ncc34)cc2s1)C1CC1 [Example 27, N-(6-(5-hydroxy-1H-indazol-4-yl)benzo[d]thiazol-2-yl)cyclopropanecarboxamide]
< 100 | CN(C)C(=O)CNc1c(F)c(Cl)c(-c2ccc3nc(NC(=O)[C@@H]4C[C@@H]4F)cn3c2)c2cn[nH]c12 [Example 397, (1S,2S)-N-(6-(5-chloro-7-((2-(dimethylamino)-2-oxoethyl)amino)-6-fluoro-1H-indazol-4-yl)imidazo[1,2-a]pyridin-2-yl)-2-fluorocyclopropane-1-carboxamide]
> 1000 | CC(C)(C)OC(=O)c1ccc2[nH]ncc2c1-c1ccc2nc(NC(=O)C3CC3)sc2c1 [Example 21, tert-butyl 4-(2-(cyclopropanecarboxamido)benzo[d]thiazol-6-yl)-1H-indazole-5-carboxylate]
